Tests used:
Type in all cases: in vivo, human
patients with PH-HFpEF [1] = assay: Serum BNP or NT-proBNP levels, I.V. to oral levosimendan transition study
Protocol: (§1) Methods: Patients with PH-HFpEF who were in the open label extension study of the HELP Trial for more than 18 months volunteered to enroll in this transition protocol. Patients were initiated with 1 mg/day of oral levosimendan 5-7 days after the last IV levosimendan infusion. The oral dose was increased every 2 weeks by 1 mg/day to a maximum of 4 mg/day over an 8 week period. The highest daily dose was determined by the investigator based on clinical assessments of symptoms and side effects. The primary safety endpoints were change in resting heart rate and blood pressure from baseline to final study visit and all other adverse events. Secondary efficacy endpoints included change in six-minute walk distance (6MWD), serum brain natriuretic peptide (BNP) or NT-proBNP levels, and quality of life as assessed by Kansas City Cardiomyopathy Questionnaire clinical summary score (KCCQ-CS) and overall summary score (KCCQ-OS) from baseline to final study visit. All comparisons were the baseline and at week 6-8 measurements at the highest daily dose of levosimendan.
(§2) • Change in six-minute walk distance (6MWD) from baseline to final study visit • Change in serum brain natriuretic peptide (BNP) or NT-proBNP levels from baseline to final study visit • Change in quality of life as assessed by Kansas City Cardiomyopathy Questionnaire clinical summary score (KCCQ-CS) and overall summary score (KCCQ-OS) from baseline to final study visit
(§3) All comparisons were the baseline and at week 6-8 measurements at the highest daily dose of levosimendan.

patients with PH-HFpEF [2] = assay: Kansas City Cardiomyopathy Questionnaire (KCCQ), I.V. to oral levosimendan transition study
Protocol: as §1, §2, §3

[3] = tested on: subjects with pulmonary hypertension with heart failure and preserved ejection fraction; assay: TNX-LVO-05 safety review: treatment emergent adverse events
Excerpt: This is the third safety review for Study Protocol No. TNX-LVO-05. This review a) summarizes treatment emergent adverse events (TEAEs), treatment emergent serious adverse events (TESAEs), discontinuations due to TEAEs, and b) provides an overall assessment of safety data.
As of 4 Nov. 2020, 36 subjects have been enrolled in this open-label study with levosimendan and 18 (−5; this number presents change versus previous Safety Review) are still active. Seven subjects (+3) withdrew due to AE, and eight (+2) subjects withdrew consent. One subject was withdrawn by investigator decision.

[4] = baseline to final visit, oral levosimendan

C[C@@H]1CC(=O)NN=C1c1ccc(NN=C(C#N)C#N)cc1 [levosimendan]
change in NT-proBNP (patients with PH-HFpEF [1]; n=7, baseline to final study visit, oral levosimendan): −239.4 (SD 548.1) pg/dl
change in BNP (patients with PH-HFpEF [1]; n=8, baseline to final study visit, oral levosimendan): −133.3 (SD 136.6) pg/dl
improvement in BNP/NT-ProBNP biomarker measurements (patients with PH-HFpEF [1]; oral levosimendan compared to weekly I.V. infusion): 22%
KCCQ OVERALL SUMMARY, mean Δ (patients with PH-HFpEF [2]; [4]): +3.7
KCCQ PHYSICAL LIMITATION, mean Δ (patients with PH-HFpEF [2]; [4]): +0.3
KCCQ QUALITY OF LIFE, mean Δ (patients with PH-HFpEF [2]; [4]): +4.2
KCCQ SELF EFFICACY, mean Δ (patients with PH-HFpEF [2]; [4]): −2.3
KCCQ SOCIAL LIMITATION, mean Δ (patients with PH-HFpEF [2]; [4]): +5.5
KCCQ Symptom Burden, mean Δ (patients with PH-HFpEF [2]; [4]): +6.3
KCCQ Symptom Frequency, mean Δ (patients with PH-HFpEF [2]; [4]): +3.1
KCCQ Symptom Stability, mean Δ (patients with PH-HFpEF [2]; [4]): +9.4
KCCQ TOTAL SYMPTOM, mean Δ (patients with PH-HFpEF [2]; [4]): +4.7
mean KCCQ-CS score improvement (patients with PH-HFpEF [2]; n=16, oral levosimendan): 2.5 points
mean KCCQ-OS score improvement (patients with PH-HFpEF [2]; n=16, oral levosimendan): 3.7 points
mean KCCQ-TS score improvement (patients with PH-HFpEF [2]; n=16, oral levosimendan): 4.7 points
TEAE arthralgia ([3]; of 36 enrolled): 3 subjects
TEAE asthenia ([3]; of 36 enrolled): 3 subjects
TEAE back pain ([3]; of 36 enrolled): 3 subjects
TEAE cardiac failure ([3]; of 36 enrolled): 6 subjects
TEAE dermatitis ([3]; of 36 enrolled): 3 subjects
TEAE device infusion issues ([3]; of 36 enrolled): 3 subjects
TEAE dizziness ([3]; of 36 enrolled): 8 subjects
TEAE dyspnea ([3]; of 36 enrolled): 8 subjects
TEAE fluid overload ([3]; of 36 enrolled): 3 subjects
TEAE gout ([3]; of 36 enrolled): 3 subjects
TEAE headache ([3]; of 36 enrolled): 5 subjects
TEAE hemoptysis ([3]; of 36 enrolled): 3 subjects
TEAE hypokalemia ([3]; of 36 enrolled): 7 subjects
TEAE palpitations ([3]; of 36 enrolled): 4 subjects
TEAE pneumonia ([3]; of 36 enrolled): 3 subjects
TEAE upper respiratory tract infection ([3]; of 36 enrolled): 3 subjects
TEAE urinary tract infection ([3]; of 36 enrolled): 3 subjects
TEAE ventricular extrasystoles ([3]; of 36 enrolled): 3 subjects
TEAE weight increased ([3]; of 36 enrolled): 3 subjects
drug-related TEAE device infusion issue ([3]; of 36 enrolled): 3 subjects
drug-related TEAE headache ([3]; of 36 enrolled): 2 subjects
drug-related TEAE palpitations ([3]; of 36 enrolled): 2 subjects
drug-related TEAE urticaria ([3]; of 36 enrolled): 2 subjects
drug-related TEAE ventricular extrasystoles ([3]; of 36 enrolled): 2 subjects
subjects permanently discontinued study drug due to a TEAE ([3]; of 36 enrolled): 5 subjects
subjects with TEAEs, SOC General disorders and administration site conditions ([3]; of 36 enrolled): 15 subjects
subjects with TEAEs, SOC Nervous system disorders ([3]; of 36 enrolled): 15 subjects
TESAE asthenia ([3]; of 36 enrolled (5.6%)): 2 subjects
TESAE cardiac failure congestive ([3]; of 36 enrolled (5.6%)): 2 subjects
TESAE pneumonia ([3]; of 36 enrolled (8.3%)): 3 subjects
TESAEs, SOC Metabolism and nutrition disorders ([3]; of 36 enrolled (8.3%)): 4 subjects
related TEAEs, SOC Nervous system disorders ([3]; of 36 enrolled (8.3%)): 3 subjects
related TEAEs, SOC Respiratory, thoracic and mediastinal disorders ([3]; of 36 enrolled (8.3%)): 3 subjects
related TEAEs, SOC Skin and subcutaneous tissue disorders ([3]; of 36 enrolled (8.3%)): 3 subjects
related TEAEs, SOC cardiac disorders ([3]; of 36 enrolled (8.3%)): 5 subjects
TESAE cardiac failure ([3]; of 36 enrolled (11.1%)): 4 subjects
related TEAEs, SOC Product issues ([3]; of 36 enrolled (11.4%)): 4 subjects
TESAEs, SOC Infections and Infestations ([3]; of 36 enrolled (22.2%)): 8 subjects
TESAEs, SOC cardiac disorders ([3]; of 36 enrolled (22.2%)): 8 subjects
subjects with TEAE severity moderate ([3]; of 36 enrolled (25.0%)): 9 subjects
subjects with TEAE severity mild ([3]; of 36 enrolled (27.8%)): 10 subjects
subjects with TEAE severity severe ([3]; of 36 enrolled (36.1%)): 13 subjects
subjects with TEAEs considered related to the study drug ([3]; of 36 enrolled (41.7%)): 15 subjects
subjects with TEAEs, SOC Cardiac disorders ([3]; of 36 enrolled (47.2%)): 17 subjects
subjects with TEAEs, SOC Infections and Infestations ([3]; of 36 enrolled (47.2%)): 17 subjects
subjects with serious TEAEs (TESAEs) ([3]; of 36 enrolled (55.6%)): 20 subjects
subjects with TEAEs ([3]; of 36 enrolled (88.9%)): 32 subjects
overall safety assessment ([3]; third safety review, as of 4 Nov. 2020): no safety trends or signals
serious TEAEs considered related ([3]; two of 36 enrolled): 5.6%

— US20250064799A1, “ORAL FORMULATIONS OF LEVOSIMENDAN FOR TREATING PULMONARY HYPERTENSION WITH HEART FAILURE WITH PRESERVED EJECTION FRACTION” (Tenax Therapeutics, Inc., priority 2021, published 2025)
